Data published in patent publication US20230339886A1 (University of Florida Research Foundation, Incorporated, priority 2020, published 2023).
pEC50: −log10 of the molar value.

Target: T1, REV-ERBα LBD (human; residues 281-614 Δ324-422) (Homo sapiens, UniProt P20393, DEL324-422)
T1 construct: 6×Histag-REV-ERBα LBD (human; residues 281-614 Δ324-422); made in house; host or cells: Escherichia coli
Experiment: TR-FRET corepressor interaction assay (REV-ERBα LBD, FITC-SMRT peptide)
Assay type: biochemical
Conditions: FITC-SMRT peptide, read-out: REVERBα agonism (EC50 class, FRET assay)
Method in brief: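 Compound serial dilutions (in DMSO, triplicate) incubated 2 h at 4 °C; Tb donor excited at 340 nm, emission read at 495 nm and FITC acceptor at 520 nm. TR-FRET ratio (520/495 nm) plotted against ligand concentration and fitted to a sigmoidal dose-response curve.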

T1 sequence (P20393 with tags, fused parts or gaps DEL324-422): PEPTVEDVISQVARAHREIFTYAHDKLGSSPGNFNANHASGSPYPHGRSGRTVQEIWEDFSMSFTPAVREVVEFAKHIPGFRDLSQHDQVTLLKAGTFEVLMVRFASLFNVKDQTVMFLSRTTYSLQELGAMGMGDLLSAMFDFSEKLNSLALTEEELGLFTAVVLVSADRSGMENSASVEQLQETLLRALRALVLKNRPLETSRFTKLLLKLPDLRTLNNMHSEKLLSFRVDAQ
T1 sequence (Q9Y618 2335-2356 partner limits assumed): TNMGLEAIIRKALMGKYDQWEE

Row | Compound | pEC50
1 | CC(C)(C)Cn1cc([C@H](NS(=O)(=O)C2CC2)C(=O)O)c2ccc(-c3ccccc3C(F)(F)F)cc21 [Example 431, (S)-2-(cyclopropanesulfonamido)-2-(1-neopentyl-6-(2-(trifluoromethyl)phenyl)-1H-indol-3-yl)acetic acid] | < 5.52
2 | N#Cc1cccc(F)c1-c1ccc2c([C@H](NS(=O)(=O)C3CCC3)C(F)(F)F)cn(C3CCOCC3)c2c1 [Example 526, (S)—N-(1-(6-(2-cyano-6-fluorophenyl)-1-(tetrahydro-2H-pyran-4-yl)-1H-indol-3-yl)-2,2,2-trifluoroethyl)cyclobutanesulfonamide] | > 6.30
3 | CC(C)(C)Cn1cc([C@H](NS(=O)(=O)C2CC2)C(F)F)c2cc(F)c(-c3ccccc3C(F)(F)F)cc21 [Example 542, (S)—N-(2,2-difluoro-1-(5-fluoro-1-neopentyl-6-(2-(trifluoromethyl)phenyl)-1H-indol-3-yl)ethyl)cyclopropanesulfonamide] | > 6.30
4 | CC(NS(=O)(=O)C1CCC1)c1cn(CC(C)(C)C)c2cc(-c3ccccc3C(F)(F)F)c(F)cc12 (stereo not drawn) [Example 508, N-(1-(5-fluoro-1-neopentyl-6-(2-(trifluoromethyl)phenyl)-1H-indol-3-yl)ethyl)cyclobutanesulfonamide] | > 6.30
5 | CC(C)(C)Cn1cc([C@H](NS(=O)(=O)C2CCC2)C(F)(F)F)c2ccc(-c3ccccc3C#N)nc21 [Example 534, (S)—N-(1-(6-(2-cyanophenyl)-1-neopentyl-1H-pyrrolo[2,3-b]pyridin-3-yl)-2,2,2-trifluoroethyl)cyclobutanesulfonamide] | > 6.30
6 | CC(C)(C)Cn1cc([C@H](NS(=O)(=O)C2CC2)C(F)F)c2ccc(-c3c(F)cccc3C(F)(F)F)cc21 [Example 543, (S)—N-(2,2-difluoro-1-(6-(2-fluoro-6-(trifluoromethyl)phenyl)-1-neopentyl-1H-indol-3-yl)ethyl)cyclopropanesulfonamide] | > 6.30
7 | CC(C)(C)Cn1cc([C@H](NS(=O)(=O)C2CCC2)C(F)(F)F)c2ccc(C3CCCC3)nc21 [Example 427, (S)—N-(1-(6-cyclopentyl-1-neopentyl-1H-pyrrolo[2,3-b]pyridin-3-yl)-2,2,2-trifluoroethyl)cyclobutanesulfonamide] | > 6.30
8 | CC(C)(C)Cc1cn(CCNS(=O)(=O)C2CCCC2)c2ccc(-c3ccc(C(F)(F)F)cc3C(F)(F)F)cc12 [Example 503, N-(2-(5-(2,4-bis(trifluoromethyl)phenyl)-3-neopentyl-1H-indol-1-yl)ethyl)cyclopentanesulfonamide] | > 6.30
9 | CC(C)(C)Cn1cc([C@H](NS(=O)(=O)C2CCC2)C(F)(F)F)c2cc(F)c(-c3cccc4c3CCCC4)cc21 [Example 479, N-[(1S)-1-[1-(2,2-dimethylpropyl)-5-fluoro-6-tetralin-5-yl-indol-3-yl]-2,2,2-trifluoro-ethyl]cyclobutanesulfonamide] | > 6.30
10 | CC(C)(C)Cn1cc([C@H](NS(=O)(=O)C2CC2)C(F)F)c2ccc(-c3ccccc3C(F)(F)F)cc21 [Example 541, (S)—N-(2,2-difluoro-1-(1-neopentyl-6-(2-(trifluoromethyl)phenyl)-1H-indol-3-yl)ethyl)cyclopropanesulfonamide] | > 6.30
11 | CC(C)(C)Cn1cc([C@H](NS(=O)(=O)C2CC2)C(F)(F)F)c2cc(F)c(-c3cccc4c3CCCC4)cc21 [Example 477, N-[(1S)-1-[1-(2,2-dimethylpropyl)-5-fluoro-6-tetralin-5-yl-indol-3-yl]-2,2,2-trifluoro-ethyl]cyclopropanesulfonamide] | 5.52 to 6.30
12 | [2H][C@](NS(=O)(=O)C1CC1)(c1cn(CC(C)(C)C)c2cc(-c3ccccc3C(F)(F)F)ccc12)C(F)F [Example 550, (S)—N-(2,2-difluoro-1-(1-neopentyl-6-(2-(trifluoromethyl)phenyl)-1H-indol-3-yl)ethyl-1-d)cyclopropanesulfonamide] | > 6.30
13 | CC(C)(C)Cn1cc([C@H](NS(=O)(=O)C2CCC2)C(F)(F)F)c2ccc(-c3ccccc3C(F)(F)F)nc21 [Example 492, N-[(1S)-1-[1-(2,2-dimethylpropyl)-6-[2-(trifluoromethyl)phenyl]pyrrolo[2,3-b]pyridin-3-yl]-2,2,2-trifluoro-ethyl]cyclobutanesulfonamide] | > 6.30

Same assay, conditions: Table 2, read-out: REVERBα agonism (EC50 class, FRET assay)

Row | Compound | pEC50
14 | COc1cccc(Cn2cc(CCNS(=O)(=O)N(C)C)c3ccc(-c4ccncc4)cc32)c1 [Example 147, N-{2-[6-(pyridin-4-yl)-1-(3-methoxybenzyl)-1H-indol-3-yl]ethyl}-N,N-dimethylsulfuric diamide] | 5.52 to 6.30
15 | CC(C)Cn1cc(CCNS(=O)(=O)N(C)C)c2ccc(C3(O)CCC3)cc21 [Example 107, 1-(3-{2-[(dimethylsulfamoyl)amino]ethyl}-1-(2-methylpropyl)-1H-indol-6-yl)cyclobutan-1-ol] | 5.52 to 6.30
16 | CC(C)Cn1cc(CCS(=O)(=O)C(C)C)c2ccc(C3CCCCC3)cc21 [Compound 250] | > 6.30
17 | CC(C)Cn1cc(CCNS(=O)(=O)N(C)C)c2cc(Br)ccc21 [Example 135, ({2-[5-bromo-1-(2-methylpropyl)-1H-indol-3-yl]ethyl}sulfamoyl)dimethylamine] | > 6.30
18 | CN(C)S(=O)(=O)N[C@@H](c1cn(CC(C)(C)C)c2cc(-c3ccccc3Cl)c(F)cc12)C(F)(F)F [Example 330, {[(1S)-1-[6-(2-chlorophenyl)-1-(2,2-dimethylpropyl)-5-fluoro-1H-indol-3-yl]-2,2,2-trifluoroethyl]sulfamoyl}dimethylamine] | > 6.30
19 | CC(C)(C)Cn1cc([C@H](NS(=O)(=O)C2CC(F)(F)C2)C(F)(F)F)c2ccc(-c3ccccc3C(F)(F)F)cc21 [Example 419, (S)-3,3-difluoro-N-(2,2,2-trifluoro-1-(1-neopentyl-6-(2-(trifluoromethyl)phenyl)-1H-indol-3-yl)ethyl)cyclobutane-1-sulfonamide] | 5.52 to 6.30
20 | CC(C)(C)Cc1cn(CCNS(=O)(=O)C2CCC2)c2ccc(-c3ccc(C(F)(F)F)cc3C(F)(F)F)cc12 [Example 418, N-(2-(5-(2,4-bis(trifluoromethyl)phenyl)-3-neopentyl-1H-indol-1-yl)ethyl)cyclobutanesulfonamide] | > 6.30
21 | CC(C)(C)Cc1cn(CCNS(=O)(=O)C2CC2)c2ccc(-c3cncc4ccccc34)cc12 [Example 218, N-(2-(5-(isoquinolin-4-yl)-3-neopentyl-1H-indol-1-yl)ethyl)cyclopropane-sulfonamide] | 5.52 to 6.30
22 | CN(C)S(=O)(=O)NCCc1c[nH]c2cc(-c3ccncc3)ccc12 [Compound 40, dimethyl({2-[6-(pyridin-4-yl)-1H-indol-3-yl]ethyl}sulfamoyl)amine] | < 5.52
23 | C=C(C)c1ccc2c(CCNS(=O)(=O)N(C)C)cn(CC(C)C)c2c1 [Example 88] | > 6.30
24 | CC(C)(C)Cn1cc(CCNS(=O)(=O)C2CC2)c2ccc(-c3cccc(C(F)(F)F)c3C#N)cc21 [Example 399, N-(2-(6-(2-cyano-3-(trifluoromethyl)phenyl)-1-neopentyl-1H-indol-3-yl)ethyl)cyclopropanesulfonamide] | < 5.52
25 | CC(C)Cn1cc(C(CS(C)(=O)=O)C(F)(F)F)c2ccc(-c3ccccc3C(F)(F)F)cc21 (stereo not drawn) [Example 407, 1-isobutyl-3-(1,1,1-trifluoro-3-(methylsulfonyl)propan-2-yl)-6-(2-(trifluoromethyl)phenyl)-1H-indole] | < 5.52
26 | CNC(=O)Cn1cc(CCNS(=O)(=O)N(C)C)c2ccc(Br)cc21 [Example 166, 2-(6-bromo-3-(2-((N,N-dimethylsulfamoyl)amino)ethyl)-1H-indol-1-yl)-N-methylacetamide] | 5.52 to 6.30
27 | CC(C)Cn1cc([C@H](NS(=O)(=O)N(C)C)C(F)(F)F)c2cc(F)c(-c3ccccc3Cl)cc21 [Example 326, {[(1S)-1-[6-(2-chlorophenyl)-5-fluoro-1-(2-methylpropyl)-1H-indol-3-yl]-2,2,2-trifluoroethyl]sulfamoyl}dimethylamine] | > 6.30
28 | CC(C)Cn1cc([C@@H](NS(=O)(=O)C2CC2)C(F)(F)F)c2ccc(-c3ccccc3C(F)(F)F)cc21 [Example 222, (R)—N-(2,2,2-trifluoro-1-(1-isobutyl-6-(2-(trifluoromethyl)phenyl)-1H-indol-3-yl)ethyl)cyclopropanesulfonamide] | 5.52 to 6.30
29 | CC(C)Cn1cc([C@H](NS(=O)(=O)C2CC2)C(F)(F)F)c2cc(F)c(-c3ccccc3Cl)cc21 [Example 314, (S)—N-(1-(6-(2-chlorophenyl)-5-fluoro-1-isobutyl-1H-indol-3-yl)-2,2,2-trifluoroethyl)cyclopropanesulfonamide] | > 6.30
30 | CC(C)Cn1cc(CCN(C)S(=O)(=O)N(C)C)c2ccc(Br)cc21 [Compound 123, ({2-[6-bromo-1-(2-methylpropyl)-1H-indol-3-yl]ethyl}(methyl)sulfamoyl)dimethylamine] | 5.52 to 6.30
31 | CC(C)(C)Cn1cc(CCNS(=O)(=O)C2CC2)c2ccc(-c3ccc(Cl)cc3Cl)cc21 [Example 397, N-(2-(6-(2,4-dichlorophenyl)-1-neopentyl-1H-indol-3-yl)ethyl)cyclopropanesulfonamide] | > 6.30
32 | CC(C)(C)Cn1cc(CCNS(=O)(=O)C2CC2)c2ccc(-c3ccc(C(F)(F)F)cc3Cl)cc21 [Example 396, N-(2-(6-(2-chloro-4-(trifluoromethyl)phenyl)-1-neopentyl-1H-indol-3-yl)ethyl)cyclopropanesulfonamide] | > 6.30
33 | COC(C)(C)Cn1cc([C@H](NS(=O)(=O)C2CCC2)C(F)(F)F)c2cc(F)c(-c3ccccc3C(F)(F)F)cc21 [Example 391, N-[(1S)-2,2,2-trifluoro-1-[5-fluoro-1-(2-methoxy-2-methyl-propyl)-6-[2-(trifluoromethyl)phenyl]indol-3-yl]ethyl]cyclobutanesulfonamide] | > 6.30
